{"source": "paper PMC9078972", "about": "(RSC Advances, 2018)", "key": {"[1]": {"system": "Mycobacterium tuberculosis H37Ra", "assay": "microbe, parasite or virus in culture", "format": "cell-based"}, "[2]": {"assay": "Cytotoxicity against VERO cells", "format": "cell-based", "details": "African green monkey, VERO cells (kidney epithelial cells)"}, "[3]": {"assay": "physchem", "details": "37 °C, water, thermodynamic from solid"}, "[4]": {"assay": "in vitro", "details": "human, microsomes, pH 7.5"}, "[5]": {"assay": "in vitro", "details": "rat, microsomes, pH 7.5"}, "[6]": {"assay": "in vitro", "details": "mouse, microsomes, pH 7.5"}, "[7]": {"assay": "in vitro", "details": "dog; for Papp B→A / efflux ratio: MDCK-MDR1, pH 7.4; for Papp A→B: MDCK-MDR1, pH 7.4, Mean Papp A to B, A to B"}, "[8]": {"molecular_target": "CYP2C19 (Homo sapiens, UniProt P33261)", "sequence (P33261 whole entry)": "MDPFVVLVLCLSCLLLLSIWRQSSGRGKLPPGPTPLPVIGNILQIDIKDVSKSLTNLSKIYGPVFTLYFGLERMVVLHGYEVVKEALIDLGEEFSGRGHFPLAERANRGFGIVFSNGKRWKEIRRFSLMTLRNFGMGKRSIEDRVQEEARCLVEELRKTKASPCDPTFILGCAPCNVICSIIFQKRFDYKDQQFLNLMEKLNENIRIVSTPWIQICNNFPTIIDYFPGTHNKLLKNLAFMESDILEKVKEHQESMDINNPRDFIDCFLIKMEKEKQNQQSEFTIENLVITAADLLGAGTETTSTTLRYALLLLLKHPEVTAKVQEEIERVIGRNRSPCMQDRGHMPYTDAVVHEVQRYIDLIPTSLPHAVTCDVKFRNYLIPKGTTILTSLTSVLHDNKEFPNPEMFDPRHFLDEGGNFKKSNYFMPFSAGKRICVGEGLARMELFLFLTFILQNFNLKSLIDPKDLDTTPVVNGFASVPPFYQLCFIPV", "assay": "biochemical", "details": "CYP inhibitory IC50, 2C19"}, "[9]": {"molecular_target": "CYP3A4 (Homo sapiens, UniProt P08684)", "sequence (P08684 whole entry)": "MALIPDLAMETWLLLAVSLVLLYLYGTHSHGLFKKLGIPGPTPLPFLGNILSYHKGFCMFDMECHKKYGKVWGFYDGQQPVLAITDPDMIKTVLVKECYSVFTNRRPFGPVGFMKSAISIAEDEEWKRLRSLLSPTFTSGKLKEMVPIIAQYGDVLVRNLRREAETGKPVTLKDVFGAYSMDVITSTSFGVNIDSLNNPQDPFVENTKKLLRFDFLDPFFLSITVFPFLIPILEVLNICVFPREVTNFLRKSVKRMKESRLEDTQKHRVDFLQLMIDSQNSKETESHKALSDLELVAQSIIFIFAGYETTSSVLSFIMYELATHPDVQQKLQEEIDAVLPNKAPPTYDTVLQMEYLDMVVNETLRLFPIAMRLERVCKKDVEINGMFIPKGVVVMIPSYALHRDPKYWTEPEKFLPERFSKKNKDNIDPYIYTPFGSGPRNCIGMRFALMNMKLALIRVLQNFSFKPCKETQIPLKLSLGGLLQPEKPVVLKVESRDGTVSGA", "assay": "biochemical"}, "[10]": {"assay": "Pharmacokinetic study in ICR mice", "format": "in vivo", "details": "mouse"}, "[11]": {"details": "ref previous study; cited from earlier work"}}, "note": "pIC50: −log10 of the molar value."}
{"smiles": "O=C1CN(c2nc(=O)c3cc(C(F)(F)F)cc([N+](=O)[O-])c3s2)CCN1C1CCCC1", "note": "[Compound 1a, 2-(4-Cyclopentyl-3-oxopiperazin-1-yl)-8-nitro-6(trifluoromethyl)-4H-benzo[e]-[1,3]thiazin-4-one]", "values": [{"measurement": "MIC", "setting": "[1]", "result": 0.013, "unit": "µM"}, {"measurement": "CC50", "setting": "[2]", "result": "> 10", "unit": "µM"}, {"measurement": "solubility", "setting": "[3]", "result": 7.37, "unit": "µg/mL"}, {"measurement": "half-life", "setting": "[4]", "result": 72, "unit": "min"}, {"measurement": "half-life", "setting": "[5]", "result": 15.6, "unit": "min"}, {"measurement": "half-life", "setting": "[6]", "result": 9.4, "unit": "min"}, {"measurement": "Papp B→A", "setting": "[7]", "result": 7.23, "unit": "×10⁻⁶ cm/s"}, {"measurement": "efflux ratio", "setting": "[7]", "result": 0.68}, {"measurement": "Papp A→B", "setting": "[7]", "result": 10.6, "unit": "×10⁻⁶ cm/s"}, {"measurement": "pIC50", "setting": "[8]", "result": 5.07}, {"measurement": "pIC50", "setting": "[9]", "result": 5.27}]}
{"smiles": "O=c1nc(N2CCN(CC3CCCCC3)CC2)sc2c([N+](=O)[O-])cc(C(F)(F)F)cc12", "note": "[PBTZ169]", "values": [{"measurement": "Cmax", "setting": "[10]; lung, iv, 10 mg/kg", "result": 4210, "unit": "ng/mL"}, {"measurement": "MRT inf", "setting": "[10]; lung, iv, 10 mg/kg", "result": 270, "unit": "min"}, {"measurement": "Tmax", "setting": "[10]; lung, iv, 10 mg/kg", "result": 4.8, "unit": "min"}, {"measurement": "half-life", "setting": "[10]; lung, iv, 10 mg/kg", "result": 190, "unit": "min"}, {"measurement": "AUC(0-inf)", "setting": "[10]; lung, po, 100 mg/kg", "result": 7840, "unit": "ng·h/mL"}, {"measurement": "Cmax", "setting": "[10]; lung, po, 100 mg/kg", "result": 811, "unit": "ng/mL"}, {"measurement": "MRT inf", "setting": "[10]; lung, po, 100 mg/kg", "result": 390, "unit": "min"}, {"measurement": "Tmax", "setting": "[10]; lung, po, 100 mg/kg", "result": 30, "unit": "min"}, {"measurement": "half-life", "setting": "[10]; lung, po, 100 mg/kg", "result": 254, "unit": "min"}, {"measurement": "AUC(0-inf)", "setting": "[10]; plasma, iv, 10 mg/kg", "result": 9070, "unit": "ng·h/mL"}, {"measurement": "MRT inf", "setting": "[10]; plasma, iv, 10 mg/kg", "result": 63, "unit": "min"}, {"measurement": "Tmax", "setting": "[10]; plasma, iv, 10 mg/kg", "result": 4.8, "unit": "min"}, {"measurement": "Vd", "setting": "[10]; plasma, iv, 10 mg/kg", "result": 1.15, "unit": "L/kg"}, {"measurement": "clearance", "setting": "[10]; plasma, iv, 10 mg/kg", "result": 18.3, "unit": "mL/min/kg"}, {"measurement": "half-life", "setting": "[10]; plasma, iv, 10 mg/kg", "result": 160, "unit": "min"}, {"measurement": "Cmax", "setting": "[10]; plasma, po, 100 mg/kg", "result": 3000, "unit": "ng/mL"}, {"measurement": "MRT inf", "setting": "[10]; plasma, po, 100 mg/kg", "result": 222, "unit": "min"}, {"measurement": "Tmax", "setting": "[10]; plasma, po, 100 mg/kg", "result": 120, "unit": "min"}, {"measurement": "bioavailability", "setting": "[10]; plasma, po, 100 mg/kg", "result": 20.8, "unit": "%"}, {"measurement": "half-life", "setting": "[10]; plasma, po, 100 mg/kg", "result": 125, "unit": "min"}, {"measurement": "half-life", "setting": "[4]", "result": 11.1, "unit": "min"}, {"measurement": "half-life", "setting": "[5]", "result": 14.7, "unit": "min"}, {"measurement": "half-life", "setting": "[6]", "result": 14.4, "unit": "min"}, {"measurement": "Papp B→A", "setting": "[7]", "result": 0.74, "unit": "×10⁻⁶ cm/s"}, {"measurement": "Papp A→B", "setting": "[7]", "result": 0.74, "unit": "×10⁻⁶ cm/s"}]}
{"smiles": "O=C1CN(c2nc(=O)c3cc(C(F)(F)F)cc([N+](=O)[O-])c3s2)CCN1CC1CCCCC1", "note": "[Compound 1c, 2-(4-(Cyclohexylmethyl)-3-oxopiperazin-1-yl)-8-nitro-6-(trifluoromethyl)-4H-benzo-[e][1,3]thiazin-4-one]", "values": [{"measurement": "MIC", "setting": "[1]", "result": 0.017, "unit": "µM"}, {"measurement": "CC50", "setting": "[2]", "result": "> 10", "unit": "µM"}, {"measurement": "solubility", "setting": "[3]", "result": 3.57, "unit": "µg/mL"}]}
{"smiles": "Cc1ccnc(OC2CCN(c3nc(=O)c4cc(C(F)(F)F)cc([N+](=O)[O-])c4s3)CC2)n1", "note": "[Compound 3m, 2-(4-((4-Methylpyrimidin-2-yl)oxy)piperidin-1-yl)-8-nitro-6-(trifluoromethyl)-4H-benzo[e][1,3]thiazin-4-one]", "values": [{"measurement": "MIC", "setting": "[1]", "result": 0.031, "unit": "µM"}, {"measurement": "CC50", "setting": "[2]", "result": "> 10", "unit": "µM"}, {"measurement": "solubility", "setting": "[3]", "result": 2.39, "unit": "µg/mL"}]}
{"smiles": "COc1ccc(C(=O)OC2CCN(c3nc(=O)c4cc(C(F)(F)F)cc([N+](=O)[O-])c4s3)CC2)cc1", "note": "[Compound 2l, 1-(8-Nitro-4-oxo-6-(trifluoromethyl)-4H-benzo[e][1,3]thiazin-2-yl)piperidin-4-yl 4-methoxybenzoat]", "values": [{"measurement": "MIC", "setting": "[1]", "result": 0.008, "unit": "µM"}, {"measurement": "CC50", "setting": "[2]", "result": "> 10", "unit": "µM"}]}
{"smiles": "Cc1ccccc1OC1CCN(c2nc(=O)c3cc(C(F)(F)F)cc([N+](=O)[O-])c3s2)CC1", "note": "[Compound 3g, 8-Nitro-2-(4-(o-tolyloxy)piperidin-1-yl)-6-(trifluoromethyl)-4H-benzo[e][1,3]thiazin-4-one]", "values": [{"measurement": "MIC", "setting": "[1]", "result": 0.016, "unit": "µM"}, {"measurement": "CC50", "setting": "[2]", "result": "> 10", "unit": "µM"}]}
{"smiles": "O=C(OC1CCN(c2nc(=O)c3cc(C(F)(F)F)cc([N+](=O)[O-])c3s2)CC1)c1ccc(C(F)(F)F)cc1", "note": "[Compound 2k, 1-(8-Nitro-4-oxo-6-(trifluoromethyl)-4H-benzo[e][1,3]thiazin-2-yl)piperidin-4-yl 4-(trifluoromethyl)benzoate]", "values": [{"measurement": "MIC", "setting": "[1]", "result": 0.008, "unit": "µM"}, {"measurement": "CC50", "setting": "[2]", "result": "> 10", "unit": "µM"}]}
{"smiles": "C[C@H]1COC2(CCN(c3nc(=O)c4cc(C(F)(F)F)cc([N+](=O)[O-])c4s3)CC2)O1", "note": "[BTZ043]", "values": [{"measurement": "MIC", "setting": "[1]", "result": 0.004, "unit": "µM"}, {"measurement": "CC50", "setting": "[2]", "result": "> 10", "unit": "µM"}, {"measurement": "bioavailability F", "setting": "[11]", "result": 29.5, "unit": "%"}, {"measurement": "solubility", "setting": "[3]", "result": "< 1", "unit": "µg/mL"}, {"measurement": "half-life", "setting": "[4]", "result": 46.1, "unit": "min"}, {"measurement": "half-life", "setting": "[5]", "result": 22, "unit": "min"}, {"measurement": "half-life", "setting": "[6]", "result": 16.7, "unit": "min"}, {"measurement": "Papp B→A", "setting": "[7]", "result": 7.17, "unit": "×10⁻⁶ cm/s"}, {"measurement": "efflux ratio", "setting": "[7]", "result": 0.79}, {"measurement": "Papp A→B", "setting": "[7]", "result": 9.02, "unit": "×10⁻⁶ cm/s"}]}
{"smiles": "CN(C)c1ccc(C(=O)OC2CCN(c3nc(=O)c4cc(C(F)(F)F)cc([N+](=O)[O-])c4s3)CC2)cc1", "note": "[Compound 2o, 1-(8-Nitro-4-oxo-6-(trifluoromethyl)-4H-benzo[e][1,3]thiazin-2-yl)piperidin-4-yl 4-(dimethylamino)benzoate]", "values": [{"measurement": "MIC", "setting": "[1]", "result": 0.031, "unit": "µM"}, {"measurement": "CC50", "setting": "[2]", "result": "> 10", "unit": "µM"}]}
{"smiles": "COc1ccccc1C(=O)OC1CCN(c2nc(=O)c3cc(C(F)(F)F)cc([N+](=O)[O-])c3s2)CC1", "note": "[Compound 2m, 1-(8-Nitro-4-oxo-6-(trifluoromethyl)-4H-benzo[e][1,3]thiazin-2-yl)piperidin-4-yl 2-methoxybenzoate]", "values": [{"measurement": "MIC", "setting": "[1]", "result": 0.063, "unit": "µM"}, {"measurement": "CC50", "setting": "[2]", "result": "> 10", "unit": "µM"}]}
{"smiles": "CCOC(=O)CN1CCN(c2nc(=O)c3cc(C(F)(F)F)cc([N+](=O)[O-])c3s2)CC1", "note": "[Compound 2b, Ethyl 2-(4-(8-nitro-4-oxo-6-(trifluoromethyl)-4H-benzo[e][1,3]thiazin-2-yl)-piperazin-1-yl)acetate]", "values": [{"measurement": "MIC", "setting": "[1]", "result": 0.02, "unit": "µM"}, {"measurement": "CC50", "setting": "[2]", "result": "> 10", "unit": "µM"}]}
{"smiles": "Cc1ccc(OC2CCN(c3nc(=O)c4cc(C(F)(F)F)cc([N+](=O)[O-])c4s3)CC2)c(F)c1", "note": "[Compound 3i, 2-(4-(2-Fluoro-4-methylphenoxy)piperidin-1-yl)-8-nitro-6-(tri-fluoromethyl)-4H-benzo[e][1,3]thiazin-4-one]", "values": [{"measurement": "MIC", "setting": "[1]", "result": 0.016, "unit": "µM"}, {"measurement": "CC50", "setting": "[2]", "result": "> 10", "unit": "µM"}, {"measurement": "solubility", "setting": "[3]", "result": 1, "unit": "µg/mL"}]}
{"smiles": "O=C1CN(c2nc(=O)c3cc(C(F)(F)F)cc([N+](=O)[O-])c3s2)CCN1C1CCCCC1", "note": "[Compound 1b, 2-(4-Cyclohexyl-3-oxopiperazin-1-yl)-8-nitro-6-(trifluoromethyl)-4H-benzo[e]-[1,3]thiazin-4-one]", "values": [{"measurement": "MIC", "setting": "[1]", "result": 0.017, "unit": "µM"}, {"measurement": "CC50", "setting": "[2]", "result": "> 10", "unit": "µM"}, {"measurement": "solubility", "setting": "[3]", "result": 1.63, "unit": "µg/mL"}]}
{"smiles": "CCOC(=O)CC1CCN(c2nc(=O)c3cc(C(F)(F)F)cc([N+](=O)[O-])c3s2)CC1", "note": "[Compound 2c, Ethyl 2-(1-(8-nitro-4-oxo-6-(trifluoromethyl)-4H-benzo[e][1,3]thiazin-2-yl)-piperidin-4-yl)acetate]", "values": [{"measurement": "MIC", "setting": "[1]", "result": 0.016, "unit": "µM"}, {"measurement": "CC50", "setting": "[2]", "result": "> 10", "unit": "µM"}]}
{"smiles": "O=c1nc(N2CCC(Oc3ccc(F)cn3)CC2)sc2c([N+](=O)[O-])cc(C(F)(F)F)cc12", "note": "[Compound 3l, 2-(4-((5-Fluoropyridin-2-yl)oxy)piperidin-1-yl)-8-nitro-6-(tri-fluoromethyl)-4H-benzo[e][1,3]thiazin-4-one]", "values": [{"measurement": "MIC", "setting": "[1]", "result": 0.031, "unit": "µM"}, {"measurement": "CC50", "setting": "[2]", "result": "> 10", "unit": "µM"}]}
